{"source": "a melting point compilation (Tetko et al.; mined from patent text by program, amines drawn as free bases though some values may be those of a salt)"}
{"units": {"melting point": "°C"}}
{"smiles": "O=C(C=Cc1ccc(NS(=O)(=O)c2ccccc2)cc1)NO", "melting point": "189 to 191"}
{"smiles": "C[C@H](NC(=O)OC(C)(C)C)C(=O)N[C@H]1CCNC1", "melting point": "137 to 138"}
{"smiles": "C[C@H](NC(=O)c1c[nH]c2ncc(-c3cnn(C)c3)nc12)C(C)(C)C", "melting point": "296 to 297"}
{"smiles": "C[Si](C)(C)C#Cc1ccc(Oc2ccc(C(=O)C(=O)c3cccc(C(=O)C(=O)c4ccc(Oc5ccc(C#C[Si](C)(C)C)cc5)cc4)c3)cc2)cc1", "melting point": "110 to 111"}
{"smiles": "COc1ccccc1C1(Cl)C(=O)Nc2ccc(Cl)cc21", "note": "(configuration not stated)", "melting point": "220 to 224"}
{"smiles": "O=C(N[C@H](Cc1ccc(C(F)(F)F)cc1)[C@@H](O)c1cccc(F)c1)c1cccc2c1C=CCCC2", "note": "(racemic)", "melting point": "151 to 152"}
{"smiles": "C=Cc1ccc(OC(=O)c2ccccc2)cc1", "melting point": "75 to 76"}
{"smiles": "COC(=O)Cn1c(C(=O)Nc2nc(-c3cc(Br)c(OC)cc3OC)c(CCC3CCCCC3)s2)cc2ccccc21", "melting point": "110 to 114"}
{"smiles": "N#Cc1cccc(OCc2ccccc2)c1", "melting point": "38 to 40"}
{"smiles": "CC[C@@H](c1ccccc1)N(Cc1ccc(C(=O)OC)cc1)S(=O)(=O)c1ccc(F)cc1", "melting point": "107 to 109"}
{"smiles": "CC(=O)N1c2ccccc2Sc2cc(F)ccc21", "melting point": 125}
{"smiles": "COC(=O)CCC(C#N)(CCC(=O)OC)c1cccc(Cl)c1", "melting point": "78.5 to 80"}
{"smiles": "COC(=O)c1ccc2cc(C=O)ccc2c1", "melting point": 127}
{"smiles": "CCOC(=O)c1cc(=O)c2ccc(OCCCCl)cc2o1", "melting point": "107 to 108"}
{"smiles": "COC(=O)COc1ccc(NC(=O)c2cc(F)cc(N3CCC(C)CC3)c2)c2ccccc12", "melting point": "50 to 51"}
{"smiles": "CCC(C)(CC)C(=O)C=C(P(=O)(O)O)P(=O)(O)O", "melting point": "146 to 147"}
{"smiles": "Cc1cc(C)c2nc(CO)[nH]c2n1", "melting point": "244 to 246"}
{"smiles": "O=C(O)c1cc(OCc2ccccc2)cc([N+](=O)[O-])c1", "melting point": "157 to 158"}
{"smiles": "CCCCCCSc1nn2c(=O)cc(O)nc2s1", "melting point": "187 to 192"}
{"smiles": "COC(=O)CCSCC(=O)c1ccc2c(c1)CC(=O)N2", "melting point": "106 to 108"}
{"smiles": "CCCC(CCC)n1nnc2c(Nc3c(C)cc(C)cc3Br)nc(C)nc21", "melting point": "141 to 142"}
{"smiles": "Cc1nc(C(=O)c2[nH]c3ccc(Cl)cc3c2CC(=O)O)c[nH]1", "melting point": "237 to 238"}
{"smiles": "CC(C)(CO)C(O)(Cn1cncn1)c1ccc(Cl)cc1", "note": "(configuration not stated)", "melting point": "120 to 135"}
{"smiles": "COc1cc(-c2nc3cc(F)ccc3s2)ccc1OC(=O)N1CCOCC1", "melting point": 126}
{"smiles": "COc1ccc(N2CCN(Cc3n[nH]c4ccccc34)CC2)cc1", "melting point": "167 to 168"}
{"smiles": "COc1ccc(CNC(=O)c2[nH]c(C)c(-c3nc4ccc(C(=O)c5ccccc5)cc4[nH]3)c2C)cc1OC", "melting point": "120 to 122"}
{"smiles": "CNC(=C[N+](=O)[O-])SCc1ccc(CN(C)C)o1", "melting point": "101 to 103"}
{"smiles": "CCCc1c(OCCCOc2ccc(C(=O)O)cc2Cl)ccc(C(C)=O)c1OC(C)=O", "melting point": "146 to 148"}
{"smiles": "Cc1nn(C)c2c(O)nc(C(C)C)nc12", "melting point": "264 to 266"}
{"smiles": "Cc1ccc(-c2nc(Cc3cccc(CC(CO)CO)c3)c(C)o2)cc1", "melting point": "114 to 115"}
{"smiles": "CN(C)C(=O)Nc1ccc(Oc2ccc3ccccc3c2)c(C(F)(F)F)c1", "melting point": "210 to 211"}
{"smiles": "C=C(C)c1cc(Br)c(Oc2nc(C)nc3c2nnn3C(CCC)CCC)c(OC)c1", "melting point": "110 to 115"}
{"smiles": "CC(C)n1nc(Br)nc1O", "melting point": "155 to 157"}
{"smiles": "Cc1nn(-c2c(Cl)cc(C(F)(F)F)cc2Cl)nc1-c1nc(C#N)c(C#N)[nH]1", "melting point": "228 to 229"}
{"smiles": "Cc1n[nH]c2cc(-c3nn(C(C)c4oc5ccccc5c(=O)c4-c4ccccc4)c4ncnc(N)c34)ccc12", "note": "(configuration not stated)", "melting point": "249 to 252"}
{"smiles": "CCC(=NNC(=O)c1ccccc1)c1ccncc1", "melting point": 178}
{"smiles": "O=C(CCCCCCCCC(=O)OCCO)OCCO", "melting point": 47}
{"smiles": "N#CC(CF)(CF)CF", "melting point": "70 to 75"}
{"smiles": "O=C(OCc1ccccc1)C1CCCc2c1c1ccccc1n2C(=O)c1ccc(Cl)cc1", "note": "(configuration not stated)", "melting point": "123 to 124"}
{"smiles": "CCN(CC)CCCN1C(=S)c2cccc3cccc1c23", "melting point": 128}
{"smiles": "C=CCN(C(=O)OC(C)(C)C)c1cc(OC)c(-c2ccc(C[C@H](NC(=O)c3c(Cl)cccc3Cl)C(=O)O)cc2)c(OC)c1", "melting point": "138 to 139"}
{"smiles": "Cc1ccc(C(=O)Nc2cccnc2)c(Nc2ccc3cn[nH]c3c2)n1", "melting point": "> 280"}
{"smiles": "COC(=O)C(Oc1cc(OCc2ccsc2)ccc1C#N)c1ccccc1Cl", "note": "(racemic)", "melting point": "102 to 104"}
{"smiles": "O=c1[nH]ncnc2c1ccc1ncnc12", "melting point": "266 to 268"}
{"smiles": "N#CNC(=S)Nc1ccc([N+](=O)[O-])cc1", "melting point": "> 250"}
{"smiles": "Cc1c2n(c3ccc(Br)cc13)CCCC2O", "note": "(configuration not stated)", "melting point": "120 to 123"}
{"smiles": "COc1ccc(C2CNC(=O)N2C(C)c2ccccc2)cc1OC1CC2CCC1C2", "note": "(configuration not stated)", "melting point": "151 to 154"}
{"smiles": "CCCc1c(OCCCCCOc2ccc3c(c2CCC)OC(C(=O)O)CC3)ccc(C(C)=O)c1O", "note": "(configuration not stated)", "melting point": "66 to 68"}
{"smiles": "N#Cc1ccc2c(c1)CC[C@@H]1CC(=O)CC[C@@]21Cc1ccccc1", "melting point": "128 to 129"}
{"smiles": "O=C(C=Cc1ccc(O)cc1)C=Cc1ccc(O)cc1", "melting point": 236}
{"smiles": "NC(CC(=O)O)c1ccc2c(c1)OCCO2", "note": "(configuration not stated)", "melting point": "222 to 223"}
{"smiles": "CCOC(=O)C[C@H]1O[C@H](c2cccc(OC)c2OC)c2cc(Cl)ccc2N(CC(C)(C)CO)C1=O", "melting point": "188 to 190"}
{"smiles": "CCC(N)(CO)CS(=O)(=O)c1ccccc1C(=O)c1ccccc1", "note": "(configuration not stated)", "melting point": "150 to 151"}
{"smiles": "O=c1ccc2ccc(CC3CO3)cc2o1", "note": "(configuration not stated)", "melting point": "110 to 112"}
{"smiles": "COc1ccc(-c2nc(S(=O)(=O)c3ccccc3)[nH]c2-c2ccc(OC)cc2)cc1", "melting point": 106}
{"smiles": "COC(=O)N1CSC(=Cc2cc(C(C)(C)C)c(O)c(C(C)(C)C)c2)C1=O", "melting point": "165 to 168"}
{"smiles": "CN(N)c1nc2ccccc2o1", "melting point": "128 to 131"}
{"smiles": "CN1CCN=C1C(O)(c1ccccc1)c1ccccn1", "note": "(configuration not stated)", "melting point": "105 to 108"}
{"smiles": "CCc1cn(C[C@@H](C)O)c2ccc(F)c(Cl)c12", "melting point": "87 to 88"}
{"smiles": "CC(C)(C)OC(=O)N[C@@H](CCC(=O)c1ccccc1)C(=O)OC(C)(C)C", "melting point": 85}
{"smiles": "CCOCc1nc2c(N)nc(C)c(C)c2n1CCC1CCN(Cc2ccccc2)CC1", "melting point": "165 to 167"}
{"smiles": "Nc1ccc(C(=O)c2ccccc2)c(Br)c1", "melting point": "157 to 160"}
{"smiles": "Nc1nc2c(c(Nc3ccc(F)cc3)n1)-c1ccccc1C2", "melting point": "205 to 206"}
{"smiles": "Cn1c(=O)c2c(ncn2Cc2noc(CCl)n2)n(C)c1=O", "melting point": "146 to 148"}
{"smiles": "CCc1nc(-c2cc(Cl)c(O)c(Cl)c2)no1", "melting point": 126}
{"smiles": "COc1ccc(-c2nccn2N=Cc2ccc(N(C)C)cc2)cc1", "melting point": 108}
{"smiles": "Cn1c(COc2ccc(C=O)cc2)nc2ccc(Sc3cc(C(C)(C)C)c(O)c(C(C)(C)C)c3)cc21", "melting point": "219 to 221"}
{"smiles": "O=C1N(CC2CCCO2)c2ccccc2C12COc1c[nH]c(=O)cc12", "note": "(configuration not stated)", "melting point": "> 250"}
{"smiles": "O=C1Nc2cc3c(cc2OC1CCCN1CCN(c2ccc(F)cc2)CC1)CCCC3", "note": "(configuration not stated)", "melting point": "156 to 157"}
{"smiles": "Cc1cn(COCOC(=O)c2ccccc2)c(=O)[nH]c1=O", "melting point": "141 to 143"}
{"smiles": "CCOC(=O)c1c(C)nc2scnc2c1N", "melting point": "118 to 119"}
{"smiles": "c1cc(OC2CCNCC2)c2cn[nH]c2c1", "melting point": "162 to 165"}
{"smiles": "O=c1c2c(Cc3cccc(C(F)(F)F)c3)n[nH]c2c2cccnc2n1-c1cccc(C(F)(F)F)c1", "melting point": "206 to 208"}
{"smiles": "NC(=O)c1cc(=O)c2c(o1)c1ccccc1n2-c1ccccc1", "melting point": "263 to 265"}
{"smiles": "CCOC(Cc1ccc(OCc2nc(C(C)(C)C)oc2C)c(C)c1)C(=O)O", "note": "(configuration not stated)", "melting point": "95 to 97"}
{"smiles": "NS(=O)(=O)c1ccc(NC(=O)Nc2ccc(Oc3ccccc3)cc2)cc1", "melting point": "236 to 237"}
{"smiles": "O=[N+]([O-])c1cc(OC2CCCC2)c(Cl)cc1F", "melting point": "58 to 62.6"}
{"smiles": "CCOC(=O)c1ccccc1CCc1ccc2oc(-c3nc(C(C)(C)C)cs3)cc2c1", "melting point": "75 to 77"}
{"smiles": "O=P1(c2ccc(C(F)(F)F)cc2)c2ccccc2CN1c1ccccc1", "note": "(configuration not stated)", "melting point": "187 to 189"}
{"smiles": "CCOC(=O)c1cc(N)nc(SCc2ccc3ccccc3c2)n1", "melting point": "188 to 189"}
{"smiles": "CON(C)C(=O)c1cc([N+](=O)[O-])c(F)cc1Cl", "melting point": 89}
{"smiles": "CC(O)(c1ccccc1)c1cc(Cl)ccc1O", "note": "(configuration not stated)", "melting point": 106}
{"smiles": "COc1ccc(CC(=O)NC(NC(Cc2ccccc2C)=NC#N)C(C)(C)C)cc1OC", "note": "(configuration not stated)", "melting point": "153 to 155"}
{"smiles": "CC1CCN(C=Nc2ccc3c(c2)C(=O)c2ccc(N=CN4CCC(C)CC4)cc2C3=O)CC1", "melting point": "229 to 233"}
{"smiles": "CC(C)(C)C(=O)OCN1C(=O)CN(CCN2CC(=O)N(COC(=O)C(C)(C)C)C(=O)C2)CC1=O", "melting point": "114 to 118"}
{"smiles": "CN(C(=S)n1cc(F)c(N)nc1=O)c1ccccc1", "melting point": "192 to 196"}
{"smiles": "COCCCn1ccc2c1CC(c1ccccc1Cl)C1C(=O)NC(=O)C21", "note": "(configuration not stated)", "melting point": "75 to 90"}
{"smiles": "Cc1ccc2c(c1)oc1c(C(=O)NN3CCCC3)nn(-c3ccc(Cl)cc3Cl)c12", "melting point": "90 to 92"}
{"smiles": "O=[N+]([O-])c1cnn(-c2c(Cl)cc(C(F)(F)F)cc2Cl)c1", "melting point": "91 to 97"}
{"smiles": "Nc1ccc(C(O)(C(F)(F)F)C(F)(F)F)cc1O", "melting point": "168 to 170"}
{"smiles": "O=C1C=CC(O)(c2cc3ccccc3o2)c2ccccc21", "note": "(configuration not stated)", "melting point": "105 to 107"}
{"smiles": "Cn1cc(C2=C(c3c4n(c5ccccc35)CC(O)CC4)C(=O)NC2=O)c2ccccc21", "note": "(configuration not stated)", "melting point": "252 to 255"}
{"smiles": "CCOC(=O)N1CCc2c([nH]c3ccc(Cl)cc23)C1C1(C(N)=O)CCC1", "note": "(configuration not stated)", "melting point": "200 to 220"}
{"smiles": "CCOC(=O)C(=CNc1ncccc1C)C(=O)OCC", "melting point": "65 to 67"}
{"smiles": "CN1CCN(c2ccc3nc(-c4ccc(F)cc4)c(-c4ccncc4)n3n2)CC1", "melting point": 250}
{"smiles": "NC(=O)c1cc(-c2cccc3cc(Cc4cccc(C(F)(F)F)c4)sc23)ccc1F", "melting point": "169 to 170"}
{"smiles": "O=C(Nc1ccc(N2CCN(C(=O)Nc3ccc(OCCO)cc3Cl)CC2)cc1)Nc1ccccc1F", "melting point": "213 to 217"}
{"smiles": "O=C(O)Cc1ccc(OCCCCc2cc(-c3ccc(C(F)(F)F)cc3)no2)cc1", "melting point": "125 to 126"}
{"smiles": "CC(C)n1nc(-c2ccc(O)cc2O)c2cccc(C(F)(F)F)c21", "melting point": "61 to 63"}
{"smiles": "O=C(NC(=O)c1ccccc1)NC1CCCc2sccc21", "note": "(configuration not stated)", "melting point": "189 to 194"}
{"smiles": "COc1ccc2cc(C(C)NC(=O)NO)ccc2c1", "note": "(configuration not stated)", "melting point": "174 to 176"}
{"smiles": "O=C(NC1CCCCC1)Oc1ccc(N=C=S)cc1", "melting point": "170 to 173"}
